Consider 5 molecules from publication PMC8230565, “Bisavenathramide Analogues as Nrf2 Inductors and Neuroprotectors in In Vitro Models of Oxidative Stress and Hyperphosphorylation” (Antioxidants, 2021).

A short description of data set [1]: Ferric reducing antioxidant power (FRAP) assay. More on the design: key to FRAP TEAC: trolox equivalents (TEAC), relative to trolox. The conditions noted are these: for FRAP nmol Fe2+ at 30 µM: 30 µM compound, n in brackets; for FRAP TEAC: 30 µM, relative to trolox. Here is the method: A ferric reducing antioxidant power (FRAP) kit assay purchased from Sigma-Aldrich (Madrid, Spain) was employed for the experiments. The antioxidant solutions, FRAP assay buffer solution, FeCl3 solution, and FRAP probe solution were kept in ice during the preparation of the plate. A calibration standard curve was prepared by using the 2 mM ferrous standard solution provided in the FRAP kit assay. Appropriate aliquots of this solution were taken and diluted up to a 200 μL final volume with FRAP buffer. The final ferrous concentrations measured in the well were: 0, 20, 40, 60, 80, and 100 μM. Each concentration value was prepared and measured by triplicate. Stock solutions of compounds 3, as well as reference compounds trolox and ferulic acid, were freshly prepared in 95% ethanol at […]. Aliquots of 10 μL of compounds 3 and the reference compounds were mixed with 19 μL FeCl3 solution and 19 μL FRAP probe solution, and then completed to a final volume of 200 μL with FRAP assay buffer solution. The final concentration of antioxidants and references was 30 μM. Compounds 3, reference compounds, as well as the corresponding blank solutions (one for each compound to be assayed, avoiding the chromogenic FRAP probe), and positive control were thoroughly mixed in vortex for 1–2 min with the reaction chromogenic media, and then were incubated under darkness at 37 °C in the dry bath, and using the device for support well-plates. Each compound to be assayed and the reference antioxidant compounds were prepared and measured by triplicate. The absorbance values were measured at 594 nm after 5 min of reaction and, to assure complete reaction, the absorbance values after 60 min of incubation at 37 °C in the dry bath were also measured. The absorbance values of the sample antioxidant compounds were corrected by subtracting the corresponding absorbance values of the blanks, and then they were introduced in the calibration curve and the ferrous equivalents were determined. The reference antioxidants employed for this assay were trolox and ferulic acid, which were obtained from Sigma-Aldrich (Madrid, Spain). Ultrapure water was obtained from a Milli-Q Direct 8 system (Millipore, Molsheim, France).
In order to achieve a broader insight into the antioxidant profile of our compounds, we also examined them using a single electron transfer (SET)-based method, namely the ferric reducing antioxidant power (FRAP) assay, which measures the ability of an antioxidant to reduce the ferric ion in the TPTZ (2,4,6-tri(2-pyridyl)-1,3,5-triazine)-Fe(III) complex.

Data set [2] deals with AChE (Electrophorus electricus) (Electrophorus electricus, UniProt O42275). Briefly: Acetylcholinesterase inhibition (Ellman's method). It counts as biochemical. Conditions: for inhibition at 10 µM: 10 μM compound, read-out: % Inhibition of EeAChE at 10 μM; for IC50: n in brackets, read-out: IC50 (EeAChE). Here is the method: Ellman’s method was employed to determine the inhibitory capacity of the compounds against AChE (Electrophorus electricus). The compounds were studied at 10 μM concentration, at room temperature, using PBS (0.1 M, pH 8) as solvent. Transparent 48-well microplates (COSTAR 3548) were used and, in each one, a blank was included. The compounds were incubated with the enzyme (0.09 U/mL) and with DTNB (0.35 mM) for 10 min. Afterwards, the enzyme substrate acetylthiocholine (0.35 mM) was added to a final volume of 1 mL. The microplate was incubated at room temperature for 15 min. Then, the absorbance was measured at 420 nm using the microplate reader FluoStar Optima (BMG Labtech, Ortenberg, Baden-Württemberg, Germany). The enzymatic activity was calculated by subtracting the blank absorbance from the sample absorbance and dividing the result by the absorbance of the maximum activity subtracted from blank absorbance, and the result was multiplied by one hundred to give a percentage. The inhibitory activity was calculated by subtracting the enzymatic activity from one hundred. Selected compounds were assayed at 0.3, 1, 3, 10, and 30 μM concentrations to obtain inhibition curves. The results were plotted versus concentration to obtain IC50 values through sigmoidal non-lineal adjustment. All the experiments were performed at least in triplicate.
Bisavenanthramide B-6 and heliotropamide A have been identified as acetylcholinesterase inhibitors. This precedent, coupled with our interest in the potential characterization of our compounds as multitarget-directed ligands, led us to investigate them as inhibitors of this enzyme, an important anti-Alzheimer target.

The test system of data set [3] is neuroblastoma SHSY5Y cells. As to the kind of experiment: Cytotoxicity in SHSY5Y cells (MTT reduction). The conditions noted are these: MTT reduction. It counts as cell-based. Here is the method:
SH-SY5Y cells (ECACC 94030304, Porton Down, Salisbury, UK), from passages between 4 and 16 after defreezing, were maintained in a MEM/F12 containing […] nonessential amino acids and supplemented with 10% fetal bovine serum (FBS), glutamine 1 mM, 50 units/mL of penicillin, and 50 μg/mL of streptomycin (GIBCO, Madrid, Spain). Cells were harvested in a […] flask and incubated at 37 °C with wet atmosphere and 5% CO2, carrying out passages 1:4 twice a week. For neuroprotection experiments, cells were seeded in 96-well plates at a density of 60,000 cells/well. For the toxicity experiments, cells were treated with the compounds under assay before reaching confluence, in MEM/F12 with 1% FBS.
Due to their presumed electrophilicity, the neurotoxicity of our compounds was investigated by investigating their influence on cell viability in the neuroblastoma SHSY5Y cell line prior to other studies in cell cultures. […] It is relevant to note that, despite their reputation for toxicity, interest in covalent drugs has undergone a renaissance, and about 30% of the recently marketed drugs belong to this class.
For orientation: Tetrazolium dyes change colour on reduction, which living cells bring about.

A further data set relates to SH-SY5Y cells. As to the kind of experiment: Neuroprotection against okadaic acid in SH-SY5Y cells (MTT). It counts as cell-based. Conditions: Homo sapiens, SH-SY5Y, 18 h; 1 µM compound; okadaic acid 20 nM; read-out: % Neuroprotection ± SEM at 1 µM (okadaic acid). Here is the method: Neuroprotection studies against tau hyperphosphorylation exerted by okadaic acid (OA) were evaluated using the SH-SY5Y cell line as follows. […] After 18 h, cell viability was addressed by the MTT reduction method. MTT (5 mg/mL, 10 μL/well) was added and incubated for 2 h. Then, the medium was removed and the purple formazan crystals formed by viable cells were dissolved using 100 μL of DMSO. A FluoStar Optima spectrophotometer (BMG Labtech, Ortenberg, Baden-Württemberg, Germany) was used to measure the absorbance at 570 nm.
Okadaic acid is a potent inhibitor of protein phosphatase 2A (PP2A), thereby inducing tau hyperphosphorylation. For this reason, it can be employed as a model of neurodegenerative-disease-connected tau hyperphosphorylation, a well-known feature of Alzheimer’s disease, but present also in other NDDs, collectively known as tauopathies and characterized by the pathological aggregation of hyperphosphorylated tau in neurofibrillary tangles. […] Tau hyperphosphorylation is connected to oxidative stress, which activates p38 and deactivates calcineurin, a phosphatase involved in tau dephosphorylation by increasing RCAN1, its natural repressor [34, 35]. Indeed, hyperphosphorylation and oxidative stress have been proposed to generate a vicious circle that is critical to the advance of neurodegenerative tauopathies.

Chain of AChE (Electrophorus electricus) (O42275 24-633): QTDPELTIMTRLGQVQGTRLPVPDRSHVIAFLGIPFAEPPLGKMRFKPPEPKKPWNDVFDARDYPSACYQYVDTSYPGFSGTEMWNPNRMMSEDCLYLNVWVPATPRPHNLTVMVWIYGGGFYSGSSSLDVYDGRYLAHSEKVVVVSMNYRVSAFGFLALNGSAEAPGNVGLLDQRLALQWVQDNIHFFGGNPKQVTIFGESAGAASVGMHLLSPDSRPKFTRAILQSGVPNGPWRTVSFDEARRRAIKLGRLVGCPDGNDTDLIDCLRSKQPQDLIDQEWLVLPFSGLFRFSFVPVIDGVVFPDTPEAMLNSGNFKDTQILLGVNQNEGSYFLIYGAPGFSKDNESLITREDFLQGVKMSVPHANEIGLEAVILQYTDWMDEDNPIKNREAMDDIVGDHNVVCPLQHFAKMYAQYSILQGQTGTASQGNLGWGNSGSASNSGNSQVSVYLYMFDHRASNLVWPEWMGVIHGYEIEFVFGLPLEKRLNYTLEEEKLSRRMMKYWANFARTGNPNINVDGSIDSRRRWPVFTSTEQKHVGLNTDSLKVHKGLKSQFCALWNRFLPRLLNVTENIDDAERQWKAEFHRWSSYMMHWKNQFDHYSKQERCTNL

As to `COC(=O)C1=C(C)N(CCc2ccccc2)C(=O)/C1=C\c1ccc(OCc2ccccc2Cl)c(OC)c1` [Compound 3k, Methyl (Z)-4-[4-((2-Chlorobenzyl)oxy)-3-methoxybenzylidene]-2-methyl-5-oxo-1-phenethyl-4,5-dihydro-1H-pyrrole-3-carboxylate], in data set [1], the “FRAP nmol Fe2+ at 30 µM” value is 1.63 ± 0.01 (3) nmol Fe^2+ and the “FRAP TEAC” value was determined as 0.71. Also, in data set [2], the inhibition (commonly the change of the read-out against control, counted positive when it falls) at 10 µM is 40.1% and the 50% inhibitory concentration (IC50) – broadly, the concentration that inhibits the measured activity by half – was 22.4 ± 3.2 µM. The molecule further came in with an LD50 in data set [3] greater than 100 µM. Besides, the % neuroprotection against okadaic acid at 1 µM in the data set on SH-SY5Y cells came to 57.1 ± 22.3%.
On to `COC(=O)C1=C(C)N(CCc2ccccc2)C(=O)/C1=C\c1ccc(OCc2ccc(Cl)cc2)c(OC)c1` [Compound 3l, Methyl (Z)-4-[4-((4-Chlorobenzyl)oxy)-3-methoxybenzylidene]-2-methyl-5-oxo-1-phenethyl-4,5-dihydro-1H-pyrrole-3-carboxylate], for which, in data set [1], the “FRAP nmol Fe2+ at 30 µM” value is reported as 1.62 ± 0.03 (3) nmol Fe^2+ and the “FRAP TEAC” value amounted to 0.71. Also, in data set [2], the inhibition at 10 µM stood at 26.2%. In data set [3], the LD50 was greater than 100 µM. Further, in the data set with SH-SY5Y cells, the % neuroprotection against okadaic acid at 1 µM stood at 51.1 ± 18.4%.
`COC(=O)C1=C(C)N(CCc2ccc(OC)c(OC)c2)C(=O)/C1=C\c1ccc(OCc2ccc(Cl)cc2)c(OC)c1` [Compound 3m, Methyl (Z)-4-[4-((4-Chlorobenzyl)oxy)-3-methoxybenzylidene]-1-(3,4-dimethoxyphenethyl)-2-methyl-5-oxo-4,5-dihydro-1H-pyrrole-3-carboxylate]: in data set [1], the “FRAP nmol Fe2+ at 30 µM” value was 1.59 ± 0.05 (3) nmol Fe^2+ and the “FRAP TEAC” value was 0.70. For the same molecule, the inhibition at 10 µM in data set [2] is 31.8%. Also, in data set [3], the LD50 was greater than 100 µM. The % neuroprotection against okadaic acid at 1 µM with SH-SY5Y cells amounted to 40.7 ± 9.85%.
Regarding `COC(=O)C1=C(C)N(CCc2ccc(OC)c(OC)c2)C(=O)/C1=C\c1ccc(OCc2ccccc2Cl)c(OC)c1` [Compound 3n, Methyl (Z)-4-[4-((2-Chlorobenzyl)oxy)-3-methoxybenzylidene]-1-(3,4-dimethoxyphenethyl)-2-methyl-5-oxo-4,5-dihydro-1H-pyrrole-3-carboxylate], in data set [1], the “FRAP nmol Fe2+ at 30 µM” value is 1.59 ± 0.02 (3) nmol Fe^2+ and the “FRAP TEAC” value is 0.69. The inhibition at 10 µM in data set [2] was found to be 17.6%. The molecule also registered an LD50 in data set [3] greater than 100 µM. Further, the % neuroprotection against okadaic acid at 1 µM in the data set with SH-SY5Y cells is 61.4 ± 15.8%.
For `COC(=O)C1=C(C)N(CCc2ccccc2)C(=O)/C1=C\c1c[nH]c2ccccc12` [Compound 3o, Methyl (Z)-4-((1H-Indol-3-yl)methylene)-2-methyl-5-oxo-1-phenethyl-4,5-dihydro-1H-pyrrole-3-carboxylate], in data set [1], the “FRAP nmol Fe2+ at 30 µM” value was 1.80 ± 0.07 (3) nmol Fe^2+ and the “FRAP TEAC” value was 0.79. In data set [2], the inhibition at 10 µM was 39.8% and the IC50 worked out at 12.5 ± 1.4 µM. The same molecule had an LD50 in data set [3] greater than 100 µM. Besides, the % neuroprotection against okadaic acid at 1 µM in the data set on SH-SY5Y cells came to 46.3 ± 13.6%.
